Results: ChEMBL document CHEMBL1127416, “GC sequence specific recognition by an N-formamido, C-terminus-modified and imidazole-containing analogue of netropsin” (J Med Chem, 1994)

Experiments:
Format in all cases: nucleic-acid assay
Nucleic Acid [1] = experiment: The binding constants against calf thymus DNA; conditions: Bos taurus
Nucleic Acid [2] = experiment: The binding constants against T4 coliphage DNA
Nucleic Acid [3] = experiment: The binding constants against poly(dA-dT) DNA
Nucleic Acid [4] = experiment: The binding constants against […] DNA

Row | Ka (Nucleic Acid [2]) [M⁻¹] | Ka (Nucleic Acid [3]) [M⁻¹] | Ka (Nucleic Acid [4]) [M⁻¹] | SMILES | Ka (Nucleic Acid [1]) [M⁻¹]
1 | 19000 | 65000 | 105000 | CN(C)CCn1cc(NC(=O)c2nc(NC=O)cn2C)nc1C(N)=O | 137000
2 | – | – | – | Cn1cc(NC(=O)c2cc(NC(=O)CNC(=N)N)cn2C)cc1C(=O)NCCC(=N)N | 1.87e+06
